Entries after “also recorded” stand apart in the source; their conditions may differ.
Assays:
healthy young adults = assay: Berg-Washington Card Sorting Task Test; format: in vivo; details: 200 mg paraxanthine, 5 g BHB, 200 mg paraxanthine and 5 g BHB
Excerpt: (§1) The Berg-Washington Card Sorting Task (BCST) test is a test routinely used in the field to evaluate cognitive flexibility. The BCST test focuses on basic cognitive flexibility or set-shifting between old vs. new rule changes. The test involves reasoning, learning, executive control, and attention shifting. It is particularly sensitive to the subject's inability to shift set. Cards are shown with different colors (e.g., red, green, yellow, blue), different designs (e.g., circle, triangle, star, plus sign) and different numbers of symbols (e.g., 1-4) on the computer screen. Participants are asked to sort the cards by matching colors and/or designs and/or number of symbols, where the instruction for how to sort the cards can change, at different times during the test. Number of correct responses and number of errors (particular perservative errors, where the participant incorrectly continues sorting the cards under an old instruction, after a new instruction is given) are recorded. When running each such tests, subjects are given either paraxanthine+BHB, paraxanthine alone, BHB alone, or a placebo. The dosage amounts are 200 mg paraxanthine and 5 g of BHB, 200 mg of paraxanthine alone, 5 g of BHB alone, or a placebo. The testing is conducted under double blind, placebo controlled conditions. […]

[1] = target: cGMP-preferring phosphodiesterase (PDE9) (Homo sapiens, UniProt O76083); details: cited from earlier work
dopaminergic neurons = details: cited from earlier work
[2] = 28-day sports nutrition clinical study; format: in vivo; details: paraxanthine 100 mg, paraxanthine 100 mg with BHB 5 g, 28 days, exercise 5 days per week
Excerpt: Participants exercise 5 days per week, of the 4-week study. […] Increases in nitric oxide levels, as well as improved blood lipids scores (e.g., TG, TC, LDL, HDL) are also observed.

[3] = test system: healthy trained male runners; assay: Vigilance Task Test before and after 10 km treadmill run; format: in vivo; details: 200 mg paraxanthine, 200 mg caffeine, 5 g BHB, and combinations, FIG. 13
Excerpt: The Vigilance Task Test is another test routinely used in the field, and is used to evaluate a participants ability to sustain attention. The Vigilance Task Test is a sustained attention, reaction timed task test that measures the speed with which participants respond to a visual stimulus. The subjects respond to visual stimuli (e.g., a red dot) by pressing a key as soon as it appears on the computer screen. The light turns on at random, e.g., roughly every couple of seconds or so during the test. The speed of response is measured. Due to the random nature of the test, there is no learning effect. Mean response time is recorded. […] The testing is conducted under double blind, placebo controlled conditions. The subjects include 12 healthy trained male runners, aged 26±5 years. Baseline cognition tests are administered (PRE), the given supplement is ingested, and after 60 minutes of rest, a pre-race cognition test (PRE-EX) is administered. A 10 km run on a treadmill is then performed, followed by a post-race cognition test (POST), The cognition tests include a Vigilance Task Test (measuring the ability to remain heedfully vigilant) and a Berg-Washington Card Sorting Task Test (measuring cognitive flexibility).

mice = assay: Cook's Pole Climbing Test on mice; format: in vivo; details: PX 100 mg
[4] = in vivo; cited from earlier work
[5] = test system: healthy trained male runners; assay: Berg-Washington Card Sorting Task Test before and after 10 km treadmill run; format: in vivo; details: 200 mg paraxanthine, 200 mg caffeine, 5 g BHB, and combinations, after 10 km treadmill run
Excerpt: as §1, with “When running each such tests, subjects are given either paraxanthine+BHB, paraxanthine alone, BHB alone, or a placebo. The dosage amounts are 200 mg paraxanthine and 5 g of BHB, 200 mg of paraxanthine alone, 5 g of BHB alone, or a placebo.” left out, “conditions. The subjects include 12 healthy trained male runners, aged 26±5 years. Baseline cognition tests are administered (PRE), the given supplement is ingested, and after 60 minutes of rest, a pre-race cognition test (PRE-EX) is administered.” for “conditions.”

adenosine A1 receptors = target: T1, adenosine A1 receptors (Homo sapiens, UniProt P30542); details: compared with caffeine; cited from earlier work
T1 sequence (P30542 1-326): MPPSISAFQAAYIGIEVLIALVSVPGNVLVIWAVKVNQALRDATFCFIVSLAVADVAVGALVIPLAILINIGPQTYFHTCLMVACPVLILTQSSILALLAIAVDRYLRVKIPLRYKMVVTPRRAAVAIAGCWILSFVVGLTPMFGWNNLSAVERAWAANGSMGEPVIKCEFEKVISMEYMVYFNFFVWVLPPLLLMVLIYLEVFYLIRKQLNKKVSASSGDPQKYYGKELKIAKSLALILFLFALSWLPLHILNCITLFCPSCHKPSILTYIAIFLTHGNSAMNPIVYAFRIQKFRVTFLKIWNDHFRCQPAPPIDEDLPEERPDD

Sequence of cGMP-preferring phosphodiesterase (PDE9) (O76083 whole entry): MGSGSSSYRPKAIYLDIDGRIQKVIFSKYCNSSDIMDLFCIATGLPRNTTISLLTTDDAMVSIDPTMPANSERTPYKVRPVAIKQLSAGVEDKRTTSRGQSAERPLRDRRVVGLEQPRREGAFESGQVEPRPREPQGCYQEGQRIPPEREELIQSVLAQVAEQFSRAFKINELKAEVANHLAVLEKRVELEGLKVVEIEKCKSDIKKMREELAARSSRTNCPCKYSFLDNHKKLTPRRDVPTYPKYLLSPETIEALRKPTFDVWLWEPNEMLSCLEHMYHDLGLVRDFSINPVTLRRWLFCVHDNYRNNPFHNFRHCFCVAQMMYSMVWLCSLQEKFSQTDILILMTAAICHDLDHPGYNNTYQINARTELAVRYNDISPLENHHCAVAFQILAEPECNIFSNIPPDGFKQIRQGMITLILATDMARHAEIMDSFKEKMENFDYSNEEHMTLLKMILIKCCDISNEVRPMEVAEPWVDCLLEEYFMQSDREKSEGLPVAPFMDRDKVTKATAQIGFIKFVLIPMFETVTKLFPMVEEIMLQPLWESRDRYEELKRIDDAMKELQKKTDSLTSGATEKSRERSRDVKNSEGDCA

Cn1c(=O)[nH]c2ncn(C)c2c1=O [paraxanthine, 1,7-dimethylxanthine]
Berg-Washington Card Sorting Task Test number of correct responses (healthy young adults; FIG. 7): significant increase in the number of correct responses
Berg-Washington Card Sorting Task Test number of errors (healthy young adults; FIG. 8): reduction in the number of errors
inhibition of PDE9 [1]: inhibits PDE9; also recorded: selective inhibitor
protection against neurodegeneration and the loss of synaptic function (dopaminergic neurons): strongly protective
endurance (treadmill distance) ([2]; FIG. 14A): some improvement
muscle mass ([2]; FIG. 14B): some improvement
grip strength ([2]; FIG. 14C): some improvement
Vigilance Task Test response times [3]: some benefit
No. of Climbing (mice): 2.75
locomotor activation effects [4]: stronger locomotor activation effects than caffeine
Berg-Washington Card Sorting Task Test correct responses, POST relative to PRE ([5]; FIG. 12A): some improvement in correct responses
Berg-Washington Card Sorting Task Test errors, POST relative to PRE ([5]; FIGS. 12B-12D): reduced errors
binding potency for adenosine A1 receptors (adenosine A1 receptors): higher binding potencies

Source: patent publication US12144814B2, “Compositions containing paraxanthine and beta-hydroxybutyrate or precursor for increasing neurological and physiological performance” (priority 2023, dated 2024)
